# “And” between values parts separate entries of the source, which are not always exact repeats. Identical values can stand only once.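 Compound exposure: 48 hours, 5 concentrations, 96-well plates. GI50 is the concentration that inhibits growth by half. The concentration for full growth arrest is given as TGI.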
# Columns and labels:
# Test in all cases: NCI tumour cell line growth inhibition, 48 h
# SNB-78 CNS = test system: SNB-78 CNS
# DMS 273 small cell lung = test system: DMS 273 small cell lung
# HOP-18 NSCLC = test system: HOP-18 NSCLC
# DMS 114 small cell lung = test system: DMS 114 small cell lung
# LXFL 529 NSCLC = test system: LXFL 529 NSCLC
# XF 498 CNS = test system: XF 498 CNS
# KM20L2 colon = test system: KM20L2 colon
# RXF-631 renal = test system: RXF-631 renal
# MDA-N = test system: MDA-N
# P388/ADR leukemia = test system: P388/ADR leukemia
# P388 leukemia = test system: P388 leukemia
# SN12K1 renal = test system: SN12K1 renal
SMILES,TGI (SNB-78 CNS),TGI (DMS 273 small cell lung),TGI (HOP-18 NSCLC),TGI (DMS 114 small cell lung),TGI (LXFL 529 NSCLC),TGI (XF 498 CNS),TGI (KM20L2 colon),TGI (MDA-N),also measured
NCC1(N2CCOCC2)C2CCCC21CO (stereo unspecified),> 100 µM,> 100 µM,> 100 µM,> 100 µM,> 100 µM,,,,
CC1CC2C(=O)NC(=O)C2c2[nH]c3ccccc3c21 (stereo unspecified),> 100 µM,> 100 µM,,> 100 µM,> 100 µM,> 100 µM,,,
COC12C=CC(CC1)c1c(O)ccc(O)c12 (stereo unspecified),> 100 µM,> 87 µM,> 100 µM,> 100 µM,> 71.3 µM,44 µM,> 100 µM,,
C=C1C(=O)O[C@H]2C[C@@H](C)[C@@H]3CC(=O)OC[C@@]3(C)CC12 (stereo partly specified),,> 100 µM,> 100 µM,,,,52.2 µM,,
CCOC(=O)C=C1CCN(C(=O)c2ccccc2)CC1,> 100 µM,> 100 µM,> 100 µM,,> 100 µM,> 100 µM,> 100 µM,,TGI (RXF-631 renal): > 100 µM
CN1CCc2c1nc(-c1ccccc1)c1c2N(C)CC1,> 100 µM,> 100 µM,78.6 µM,,> 100 µM,,> 100 µM,,
O=C(O)CS(=O)(=O)C(c1ccccc1)c1ccccc1,,,,,,,,> 100 µM,
O=C(O)[C@@H]1C2CC([C@@H]1C(=O)O)[C@H](N1C(=O)CCC1=O)[C@@H]2Br (stereo partly specified),,,,,,,,> 100 µM,
CC1=CC(=O)c2c(O)cccc2C1=O,,,,,,,,3.23 µM,
CCc1ccc(NCc2cc(OC)c(OC)c(OC)c2)cc1,,13 µM,> 100 µM,4.9 µM and 10.2 µM,14 µM and 65.4 µM,21.7 µM and 53.9 µM,1.32 µM and 1.64 µM,1.17 µM and 0.772 µM,GI50 (MDA-N): < 0.01 µM; GI50 (DMS 273 small cell lung): 0.19 µM and 0.628 µM; GI50 (HOP-18 NSCLC): 3.4 µM and 27.6 µM; GI50 (LXFL 529 NSCLC): 0.523 µM and 1.57 µM
O=C1C/C(=C/c2ccc(/C=C3/CC(=O)N(c4cccc(Br)c4)C3=O)cc2)C(=O)N1c1cccc(Br)c1,> 100 µM,> 100 µM,> 100 µM,> 100 µM,> 100 µM,> 79 µM,> 100 µM,,
COC(=O)c1[nH]c(=S)[nH]c(=O)c1-c1ccc(Cl)cc1,> 50 µM,> 50 µM,,> 50 µM,> 50 µM,> 50 µM,> 50 µM,,TGI (RXF-631 renal): > 50 µM
CCCC(O)[C@@H](O)c1ccc2c(c1O)C(=O)c1c(OC)cccc1C2=O (stereo partly specified),91.1 µM,> 100 µM,> 100 µM,61.9 µM,,36.3 µM,> 100 µM,,TGI (RXF-631 renal): 75.4 µM
Nc1cc(=O)[nH]c(SC2=NC(N)CC(O)C2)n1 (stereo unspecified),> 100 µM,> 100 µM,> 100 µM,> 100 µM,> 100 µM,> 100 µM,> 100 µM,,
CC1Oc2cc3c(-c4c(O)cc(O)c5c(O)c6c(cc45)OC(C)C(C)C6=O)c(O)cc(O)c3c(O)c2C(=O)C1C (stereo unspecified),,,,,,,,1.58 µM,
CC[C@](C)(O)C(=O)O[C@H]1C(=O)O[C@@H]2C[C@H]3C(C)=CC(=O)[C@@H](O)[C@]3(C)[C@H]3[C@@]4(O)OC[C@]32[C@@H]1[C@@H](C)[C@H]4O,0.289 µM and 0.28 µM,0.0425 µM and 0.205 µM,0.977 µM and 3.23 µM,< 0.0257 µM,0.0317 µM,,4.77 µM and 16.9 µM,2.29 µM,TGI (P388/ADR leukemia): 9.5 µM; TGI (P388 leukemia): 0.198 µM; GI50 (SNB-78 CNS): 0.0556 µM; GI50 (KM20L2 colon): 0.267 µM and 0.136 µM; GI50 (DMS 273 small cell lung): 0.0127 µM; GI50 (HOP-18 NSCLC): 0.162 µM and 0.359 µM; GI50 (DMS 114 small cell lung): < 0.0124 µM; TGI (SN12K1 renal): 0.0598 µM; TGI (RXF-631 renal): 2.77 µM

# Reference: PubChem BioAssay (NCI)
